The term Kd denotes the free concentration of one partner at which half of the binding sites on the other are occupied at equilibrium, for simple one-to-one binding. Usually stoichiometry N stands for the number of molecules, sites or subunits per partner or assembly.

The target of data set [1] is T1, human VSIG3-ECD (Homo sapiens, UniProt Q5DX21).
T1 construct: gene IGSF11; extracellular domain (IgV + IgC2), signal peptide (22 aa) removed, His-tagged; RED-NHS labelled for MST; dimer in crystal
T1 sequence (Q5DX21 23-241): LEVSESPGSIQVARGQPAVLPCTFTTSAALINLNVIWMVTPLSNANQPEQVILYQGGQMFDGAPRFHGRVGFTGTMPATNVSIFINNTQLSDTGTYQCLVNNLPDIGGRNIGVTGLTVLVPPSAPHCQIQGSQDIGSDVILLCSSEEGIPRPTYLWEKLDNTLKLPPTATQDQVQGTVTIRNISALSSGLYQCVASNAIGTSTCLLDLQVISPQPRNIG
The data set can be described thus: microscale thermophoresis. The class given is binding. The note with it: room temperature, 30 min; RED-NHS labelled protein.

Data set [2] concerns the molecule itself. The data set can be described thus: crystal structure; hanging drop vapor diffusion, 4°C, 0.1 M sodium citrate tribasic dihydrate pH 5.6, 0.01 M iron(III) chloride, 10% Jeffamine M-600; VSIG3 at 3 mg/mL; 2.64 Å.

Regarding `O=C(CCn1c(SCC(=O)NC2CCCC2)nc2ccccc2c1=O)NC1CCCCC1` [K284-3046], the Kd in data set [1] stood at 11.6 ± 9.12 µM.

B1: human VSIG3 extracellular domain (residues 23-241) expressed in E. coli, refolded (domain or fragment, UniProt Q5DX21 23-241, looked up)
chain: LEVSESPGSIQVARGQPAVLPCTFTTSAALINLNVIWMVTPLSNANQPEQVILYQGGQMFDGAPRFHGRVGFTGTMPATNVSIFINNTQLSDTGTYQCLVNNLPDIGGRNIGVTGLTVLVPPSAPHCQIQGSQDIGSDVILLCSSEEGIPRPTYLWEKLDNTLKLPPTATQDQVQGTVTIRNISALSSGLYQCVASNAIGTSTCLLDLQVISPQPRNIG
notes: VSIG3 (IgSF11), human, UniProt Q5DX21, residues 23-241 (extracellular domain without the 22-residue signal peptide); No PDB id is printed; also called VSIG3-ECD; IgSF11; not shown: His tag (from the vector pET28a)
On to B1, for which the “stoichiometry N” value in data set [2] stood at 2.
